Reference: patent publication US20230321064A1, “Products for Treating the JNCL Disease” (Beyond Batten Disease Foundation, priority 2020, published 2023)
“Also recorded” adds a separate entry of the source.

Legend:
[1] = Tissue concentrations of Trehalose (liver, brain) by LC-MS/MS; type: in vivo, mouse
Description: LC-MS/MS bioanalytical methodologies were developed for the analysis of Trehalose, Miglustat and glucose in mouse whole blood and brain.
Tissue samples were homogenized in 8 volumes of sterile distilled water and 1 volume of TCA (20% in water) to generate a final concentration of 2% TCA, homogenates were centrifuged at 13000 rpm for 15 min at 4° C. and the supernatant transferred to a fresh plate. At the time of analysis, 1 volume of acetonitrile containing an internal standard was added in order to match the initial chromatography conditions, samples were centrifuged at 4350 rpm for 10 min at ambient temperature, and the resultant supernatant transferred for analysis on the LC-MS/MS.
The purpose of this example was to compare the blood PK of unlabelled high doses of Trehalose after IV and PO administration, with and without Miglustat PO dosing. For the IV comparison, Trehalose was dosed as an IV bolus dose 15 min after PO dosing of Miglustat. For the PO comparison Miglustat was dosed simultaneously with Trehalose. Fasted male C57BL6/N mice were dosed as detailed in Table III: […]

Cln3^Δex7-8 mice = assay: Neuronal cell death, cleaved caspase-3 immunohistology in brain sections; type: in vivo, mouse
Description: Cln3^Δex7-8 mice were obtained from the Jackson Laboratory. Control (C57BL/6J) and Cln3^Δex7-8 mice were housed 3-4 per cage in a room with a 12-h light/12-h dark cycle. Food and water were provided ad libitum. All mice used in this study were analyzed at 8 and 12 months of age and were littermates produced by crossing heterozygous Cln3^Δex7-8 mice. Only males were used for this analysis. Investigators were blinded when analyzing the data, and no randomization was necessary.
For oral administration, Trehalose was dissolved in drinking water to a final concentration of 2% and changed twice a week. Trehalose-containing water was given to Cln3^Δex7-8 mice and WT mice by spontaneous oral administration starting at 21 days of age and continuing until the day the mice were sacrificed for neuropathology studies.
Miglustat was administered in mixture with the food pellet starting at 21 days of age and continuing until the day the mice were sacrificed for neuropathology studies. Miglustat food was prepared by TestDiet using the 5V5R rodent diet (LabDiet). Two concentrations were used: 1.2 g/Kg chow (indicated as “low concentration”) and 7.2 g/Kg chow (indicated as “high concentration”) and two separate groups of Cln3^Δex7-8 mice were fed with either diet. One additional group of Cln3^Δex7-8 l mice was fed with a combination of the low-concentration Miglustat food and 2% Trehalose water.
Twelve-month-old homozygous Cln3^Δex7-8 mice and age-matched controls (WT mice) were anaesthetized with isoflurane and transcardially perfused with PBS followed by 4% buffered paraformaldehyde in 0.1 M sodium phosphate buffer, pH 7.4. Brains were subsequently removed and postfixed overnight. Before sectioning, the brains were cryoprotected in a solution containing 30% sucrose in Tris-buffered saline (TBS: 50 mM Tris, pH 7.6). Consecutive 40 μm floating coronal sections were collected in 96-well plates. Series of sections were then stained with primary antisera against CD68 (AbD
Serotec, Cat. No. MCA1957), GFAP (DAKO, Cat. No. Z0334), Subunit C of mitochondrial ATP synthase (SCMAS; Abcam, Cat. No. ab181243), or cleaved caspase 3 (Asp175) (Cell Signaling, Cat. No. 9661S) followed by either rabbit anti-rat (VectorLab) or swine anti-rabbit (DAKO) secondary antibodies, and immunoreactivity detected with Vectastain ABC (avidin-biotin) kit (Vector) and diaminobenzidine as a chromogen.
Non-overlapping images were captured, on three consecutive sections, through each region of interest. All RGB images were captured via a live video camera (JVC, 3CCD, KY-F55B), mounted onto a Zeiss Axioplan microscope using a x 40 objective and saved as JPEGs. All parameters including lamp intensity, video camera set-up and calibration were maintained constant throughout image capturing. For quantification of storage and inflammation, images were analyzed using ImageJ analysis software (NIH), using an appropriate threshold that selected the foreground immunoreactivity above background. This threshold was then applied as a constant to all subsequent images analyzed per batch of animals and reagent used to determine the specific area of immunoreactivity for each antigen in each region. Data were plotted graphically as the mean percentage area of immunoreactivity per field ±s.e.m. for each region. For quantification of cell death, images were analyzed manually and scored for the presence of apoptotic nuclei. Data were plotted graphically as the mean number of apoptotic cells per field ±s.e.m. for each region. […]

[2] = at 20° C.; cited from earlier work
[3] = 1 g/kg trehalose IV + 150 mg/kg miglustat PO, 180 min post-dose
[4] = 1 g/kg trehalose IV, 180 min post-dose

For `OC[C@H]1O[C@H](O[C@H]2O[C@H](CO)[C@@H](O)[C@H](O)[C@H]2O)[C@H](O)[C@@H](O)[C@@H]1O` [Trehalose, α-D-glucopyranosyl α-D-glucopyranoside dihydrate], the “Concentration of Trehalose, Brain L” value [1, 3] was 10.8 ± 2.0 nmol/g, the “Concentration of Trehalose, Brain R” value [1, 3] was 10.5 ± 1.7 nmol/g and the “Concentration of Trehalose, Liver” value [1, 3] was 278.6 ± 96.6 nmol/g. For the same compound, the “Concentration of Trehalose, Brain L” value [1, 4] was 6.9 ± 1.9 nmol/g, the “Concentration of Trehalose, Brain R” value [1, 4] was 7.3 ± 0.9 nmol/g and the “Concentration of Trehalose, Liver” value [1, 4] was 167.9 ± 24.6 nmol/g. For the same compound, the “brain exposure of Trehalose” value ([1]; IV Trehalose in combination with oral Miglustat, 180 min post-dose) was “about 10 nmol/g”, the “brain exposure of Trehalose” value ([1]; IV Trehalose, 180 min post-dose) was “about 7 nmol/g” and the “brain exposure of Trehalose” value ([1]; PO Trehalose) was 2.5 nmol/g. For the same compound, the “cell death (cleaved CAS-3) in the VPM/VPL region” value (Cln3^Δex7-8 mice; 12 months of age, oral, 2% Trehalose in drinking water, Miglustat in chow (FIG. 1E), dihydrate) was “partially prevented; also recorded: partially reduced”, the “programmed cell death (cleaved caspase-3 reactive cells)” value (Cln3^Δex7-8 mice; regions analyzed: VPM/VPL, dLG, S1BF, V1 (FIGS. 1A-D), oral treatment) was “effective in abating programmed cell death” and the Solubility [2] was “Trehalose: 68.9 g/100 g H2O at 20 °C”.
